Values belong to the compound of their own block, whether it stands above or below them.
System: 883617-216-R-J1-PDC tumor spheroids, viability
Assay: Anticancer human tumor 883617-216-R-J1-PDC patient-derived bladder carcinoma cell line growth inhibition [PI3K]
Settings: spheroids with HUVEC and MSC; for IC50: curve of first compound; for viability, T/C: stronger effect = lower value
How it was run: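 Multi-cell spheroids combine tumor cells with HUVEC and human MSCs, treated with targeted agents alone or with inavolisib, alpelisib, duvelisib or copanlisib. Concentrations fall in half-log steps from at or near clinical Cmax, or from 10 microM where Cmax is unknown; viability read-out.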
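Note: spheroids exposed to agents for 7 days before the viability read.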

IC50 (second compound 0.00316 µM): 20.1 nM
IC50 (second compound 0.01 µM): 10.4 nM
IC50 (second compound 0.0316 µM): < 0.316 nM
IC50 (second compound 0.1 µM): < 0.316 nM
IC50 (second compound 0.316 µM): < 0.316 nM
IC50 (second compound 1 µM): < 0.316 nM
SMILES: CC(C)n1nc(-c2ccc3oc(N)nc3c2)c2c(N)ncnc21 + COc1c(OCCCN2CCOCC2)ccc2c3n(c(=NC(=O)c4cnc(N)nc4)nc12)CCN3
viability, T/C (second compound 0.00316 µM, first compound 0.000316 µM): 82.6%
viability, T/C (second compound 0.00316 µM, first compound 0.001 µM): 73.9%
viability, T/C (second compound 0.00316 µM, first compound 0.00316 µM): 79.2%
viability, T/C (second compound 0.00316 µM, first compound 0.01 µM): 63.6%
viability, T/C (second compound 0.00316 µM, first compound 0.0316 µM): 40.7%
viability, T/C (second compound 0.00316 µM, first compound 0.1 µM): 17.4%
viability, T/C (second compound 0.01 µM, first compound 0.000316 µM): 64.9%
viability, T/C (second compound 0.01 µM, first compound 0.001 µM): 61.8%
viability, T/C (second compound 0.01 µM, first compound 0.00316 µM): 62.2%
viability, T/C (second compound 0.01 µM, first compound 0.01 µM): 49.2%
viability, T/C (second compound 0.01 µM, first compound 0.0316 µM): 33.4%
viability, T/C (second compound 0.01 µM, first compound 0.1 µM): 14.4%
viability, T/C (second compound 0.0316 µM, first compound 0.000316 µM): 40.3%
viability, T/C (second compound 0.0316 µM, first compound 0.001 µM): 34.1%
viability, T/C (second compound 0.0316 µM, first compound 0.00316 µM): 34.9%
viability, T/C (second compound 0.0316 µM, first compound 0.01 µM): 28.6%
viability, T/C (second compound 0.0316 µM, first compound 0.0316 µM): 18.5%
viability, T/C (second compound 0.0316 µM, first compound 0.1 µM): 11.5%
viability, T/C (second compound 0.1 µM, first compound 0.000316 µM): 14.7%
viability, T/C (second compound 0.1 µM, first compound 0.001 µM): 15.1%
viability, T/C (second compound 0.1 µM, first compound 0.00316 µM): 15.1%
viability, T/C (second compound 0.1 µM, first compound 0.01 µM): 13.2%
viability, T/C (second compound 0.1 µM, first compound 0.0316 µM): 8.07%
viability, T/C (second compound 0.1 µM, first compound 0.1 µM): 4.79%
viability, T/C (second compound 0.316 µM, first compound 0.000316 µM): 5.33%
viability, T/C (second compound 0.316 µM, first compound 0.001 µM): 5.54%
viability, T/C (second compound 0.316 µM, first compound 0.00316 µM): 5.8%
viability, T/C (second compound 0.316 µM, first compound 0.01 µM): 5.35%
viability, T/C (second compound 0.316 µM, first compound 0.0316 µM): 4.04%
viability, T/C (second compound 0.316 µM, first compound 0.1 µM): 3.54%
viability, T/C (second compound 1 µM, first compound 0.000316 µM): 2.62%
viability, T/C (second compound 1 µM, first compound 0.001 µM): 3.45%
viability, T/C (second compound 1 µM, first compound 0.00316 µM): 3.33%
viability, T/C (second compound 1 µM, first compound 0.01 µM): 3.45%
viability, T/C (second compound 1 µM, first compound 0.0316 µM): 3.43%
viability, T/C (second compound 1 µM, first compound 0.1 µM): 2.69%

IC50 (second compound 0.00316 µM): 40.6 nM
IC50 (second compound 0.01 µM): 34.9 nM
IC50 (second compound 0.0316 µM): 10.3 nM
IC50 (second compound 0.1 µM): 13.4 nM
IC50 (second compound 0.316 µM): < 9.49 nM
IC50 (second compound 1 µM): < 9.49 nM
SMILES: Cn1cnc2c(F)c(Nc3ccc(Br)cc3Cl)c(C(=O)NOCCO)cc21 + CC(Nc1ccc2c(c1)OCCn1cc(N3C(=O)OCC3C(F)F)nc1-2)C(N)=O
viability, T/C (second compound 0.00316 µM, first compound 0.00949 µM): 64.5%
viability, T/C (second compound 0.00316 µM, first compound 0.03 µM): 57.4%
viability, T/C (second compound 0.00316 µM, first compound 0.0949 µM): 35.1%
viability, T/C (second compound 0.00316 µM, first compound 0.3 µM): 35.3%
viability, T/C (second compound 0.00316 µM, first compound 0.949 µM): 26.5%
viability, T/C (second compound 0.00316 µM, first compound 3 µM): 19.6%
viability, T/C (second compound 0.01 µM, first compound 0.00949 µM): 62.9%
viability, T/C (second compound 0.01 µM, first compound 0.03 µM): 47.3%
viability, T/C (second compound 0.01 µM, first compound 0.0949 µM): 45.9%
viability, T/C (second compound 0.01 µM, first compound 0.3 µM): 30.6%
viability, T/C (second compound 0.01 µM, first compound 0.949 µM): 26.8%
viability, T/C (second compound 0.01 µM, first compound 3 µM): 19.4%
viability, T/C (second compound 0.0316 µM, first compound 0.00949 µM): 51.8%
viability, T/C (second compound 0.0316 µM, first compound 0.03 µM): 36%
viability, T/C (second compound 0.0316 µM, first compound 0.0949 µM): 25%
viability, T/C (second compound 0.0316 µM, first compound 0.3 µM): 25.2%
viability, T/C (second compound 0.0316 µM, first compound 0.949 µM): 20.1%
viability, T/C (second compound 0.0316 µM, first compound 3 µM): 14.2%
viability, T/C (second compound 0.1 µM, first compound 0.00949 µM): 61.2%
viability, T/C (second compound 0.1 µM, first compound 0.03 µM): 21.9%
viability, T/C (second compound 0.1 µM, first compound 0.0949 µM): 23.4%
viability, T/C (second compound 0.1 µM, first compound 0.3 µM): 18%
viability, T/C (second compound 0.1 µM, first compound 0.949 µM): 16.7%
viability, T/C (second compound 0.1 µM, first compound 3 µM): 7.35%
viability, T/C (second compound 0.316 µM, first compound 0.00949 µM): 22.1%
viability, T/C (second compound 0.316 µM, first compound 0.03 µM): 16.2%
viability, T/C (second compound 0.316 µM, first compound 0.0949 µM): 10.5%
viability, T/C (second compound 0.316 µM, first compound 0.3 µM): 11.5%
viability, T/C (second compound 0.316 µM, first compound 0.949 µM): 8.13%
viability, T/C (second compound 0.316 µM, first compound 3 µM): 4.48%
viability, T/C (second compound 1 µM, first compound 0.00949 µM): 13.3%
viability, T/C (second compound 1 µM, first compound 0.03 µM): 9.92%
viability, T/C (second compound 1 µM, first compound 0.0949 µM): 7.16%
viability, T/C (second compound 1 µM, first compound 0.3 µM): 7.46%
viability, T/C (second compound 1 µM, first compound 0.949 µM): 6.08%
viability, T/C (second compound 1 µM, first compound 3 µM): 3.09%

Source: PubChem BioAssay AID1963973 (Molecular Pharmacology Branch, DTP, NCI, 2024)
